Test results as given in patent US20050074879A1, “Antisense oligonucleotide modulation of STAT3 expression” (priority 2000, published 2005).
Oligonucleotides are written 5' to 3', each unit as a sugar letter and its base; * is a phosphorothioate linkage, no mark a phosphodiester; rarer units and linkages stand in square brackets, end groups in braces. Plain capitals give the bases only. e = 2'-O-(2-methoxyethyl) (MOE); [5mC] = 5-methylcytosine; d = 2'-deoxy (DNA)

How the values were obtained:
RANTES mRNA = assay: Induction of chemokines in BCL1 cells, RNase protection assay: RANTES; format: cell-based, mouse; settings: CpG oligonucleotide induced
Experimental: (§1) The effect of ISIS 17152 (SEQ ID. NO. 99) on chemokine levels was determined. BCL1 cells were grown, treated and processed as described in Example 2. Chemokine gene expression was induced in BCL1 cells by addition of […] of a CpG-containing oligonucleotide to the media 16 hours following antisense oligonucleotide electroporation. CpG-containing oligonucleotides are immune-stimulatory (Krieg, A. M., et al., Nature, 1995, 374, 546-549). The levels of chemokines were measured eight hours later using RNase protection assay as described in Example 2 with a mouse chemokine template set, Mck-5 (Pharmingen, San Diego, Calif.).

MIP1a mRNA = assay: Induction of chemokines in BCL1 cells, RNase protection assay: MIP1a; format: cell-based, mouse; settings: CpG oligonucleotide induced
Experimental: as §1

MIP1b mRNA = assay: Induction of chemokines in BCL1 cells, RNase protection assay: MIP1b; format: cell-based, mouse; settings: CpG oligonucleotide induced
Experimental: as §1

Human STAT3 mRNA [1] = assay: Inhibition of human STAT3 mRNA expression in U266 cells, Northern blot; format: cell-based
Experimental: U266 human myeloma cell lines (originally obtained from American Type Culture Collection) were maintained in RPMI 1640 medium supplemented with 10% fetal calf serum. Cells (15×10^6 cells in PBS) were transfected with oligonucleotides at 200V with a single 6-millisecond pulse using a BTX Electro Square Porator T820 (Genetronics, San Diego Calif.). The cells were incubated for 24 hours before RNA extraction.
Total cellular RNA was isolated using the Rneasy kit (Qiagen, Santa Clarita, Calif.). Northern blotting was perfomed on 15 μg of RNA using a cDNA probe prepared from MB-MDA 468 RNA by standard RT-PCR followed by a nested primer reaction. Signals were quantitated using a Molecular Dynamics Phosphorimager.
In order to examine the importance of STAT3 expression in multiple myeloma cells, a series of 20mer STAT3 antisense oligonucleotides were designed and synthesized, using phosphorothioate chemistry and incorporating 2′-O-methoxyethyl modifications to improve hybridization affinity and nuclease resistance.

[2] = system: U266 multiple myeloma cells; assay: Apoptosis of U266 cells, Annexin-V staining, flow cytometry; format: cell-based, human
Experimental: U266 cells (ATCC, Bethesda, Md.) were cultured in RPMI 1640 medium supplemented with 10% heat-inactivated fetal bovine serum (Sigma Chemical Company, St. Louis, Mo.), 10 mM Hepes, pH 7.2, […] 2-ME, 2mM L-glutamine, 100 U/ml penicillin, and 100 µg/ml streptomycin (Gibco, Grand Island, N.Y.).
2′-O-methoxyethylribose modified phosphorothioate oligonucleotides were synthesized on an automated DNA synthesizer (Applied Biosystems model 380B), as described above. Chimeric oligonucleotides were employed in these studies; the chimeric oligonucleotides contain 2′-O-methoxyethyl modified residues flanking a 2′-deoxynucleotide/phosphorothioate region (gap) that supports RNase H activation. Oligonucleotides were analyzed by capillary gel electrophoresis and judged to be at least 85% full-length material. U266 (1×10^7 cells in PBS) were transfected with oligonucleotides by electroporation, at 175V, 1000 μF using a BTX Electro Cell Manipulator 600 (Genetronics, San Diego, Calif.).
10×10^6 U266 cells were electroporated with oligonucleotides and cultured for 48 hours before analysis of phosphatidylserine expression was performed as a measure of apoptosis using the Annexin-V staining kit (Clontech, Palo Alto, Calif.) according to the manufacturer's instructions. […] The samples were then diluted with FacsFlow buffer and analyzed on a Becton Dickinson FACScan (Mountain View, Calif.).

Human STAT3 mRNA [3] = assay: STAT3 mRNA in A549 cells treated with dsRNAs (duplex antisense compounds), real-time PCR PPS 199 (Table 22); format: cell-based; settings: treated 4 hours, harvested 16 hours later, − decrease, + increase vs untreated control
Experimental: When cells reached 80% confluency, they are treated with duplexed antisense compounds of the invention. For cells grown in 96-well plates, wells are washed once with […] OPTI-MEM-1 reduced-serum medium (Gibco BRL) and then treated with 130 μL of OPTI-MEM-1 containing 12 μg/mL LIPOFECTIN (Gibco BRL) and the desired duplex antisense compound at a final concentration of 200 nM (a ratio of 6 μg/mL LIPOFECTIN per 100 nM duplex antisense compound). After 5 hours of treatment, the medium is replaced with fresh medium. Cells are harvested 16 hours after treatment, at which time RNA is isolated and target reduction measured by RT-PCR.
The compounds in Table 21 were tested for their effects on human STAT3 expression in A549 cells. ISIS 330249 targets the same site as the antisense oligonucleotid ISIS 106734 (SEQ ID NO: 45) and ISIS 330247 targets the same site as the antisense oligonucleotide ISIS 113176 (SEQ ID NO: 115); thus, ISIS 106734 and ISIS 113176 were also tested. A549 cells were treated with oligonucleotide mixed with LIPOFECTIN (Invitrogen Corporation, Carlsbad, Calif.) as described herein. The control oligonucleotide used was ISIS 129698 ([…], SEQ ID NO: 402). Cells were treated with oligonucleotide for 4 hours and harvested an additional 16 hours later. Untreated cells served as a control.
Human STAT3 mRNA expression levels were quantitated by real-time PCR using primer probe set PPS 199 and gene target quantities were normalized using Ribogreen as described in other examples herein. A “−” or “+” designation indicates a decrease or increase of STAT 3 mRNA expression, respectively, relative to untreated control cells. Where present, “N.D.” indicates not determined.

In the case of “23178 (antisense eA*eA*eA*eA*eA*dC*dT*dC*dC*dG*dC*dT*dG*dA*dA*eT*eG*e[5mC]*e[5mC]*e[5mC]) [compound 23178]”, the “% RANTES mRNA” value (RANTES mRNA; dose 5 nM, control 100%) is reported as 96%, the “% RANTES mRNA” value (RANTES mRNA; dose 10 nM) is reported as 70.2% and the “% RANTES mRNA” value (RANTES mRNA; dose 20 nM) is reported as 56%. The “% MIP1a mRNA” value (MIP1a mRNA; dose 5 nM) was 123%, the “% MIP1a mRNA” value (MIP1a mRNA; dose 10 nM) was 116% and the “% MIP1a mRNA” value (MIP1a mRNA; dose 20 nM) was 106%. For the same substance, the “% MIP1b mRNA” value (MIP1b mRNA; dose 5 nM) was 96.5%, the “% MIP1b mRNA” value (MIP1b mRNA; dose 10 nM) was 87.1% and the “% MIP1b mRNA” value (MIP1b mRNA; dose 20 nM) was 73.3%.
For “113176 (antisense eG*e[5mC]*eT*e[5mC]*e[5mC]*dA*dG*d[5mC]*dA*dT*d[5mC]*dT*dG*d[5mC]*dT*eG*e[5mC]*eT*eT*e[5mC]) [compound 113176]”, the “Percent inhibition of STAT3 expression” value (Human STAT3 mRNA [1]; Oligo concentration 2.5 μM) was 33%, the “Percent inhibition of STAT3 expression” value (Human STAT3 mRNA [1]; Oligo concentration 5 μM) was 67% and the “Percent inhibition of STAT3 expression” value (Human STAT3 mRNA [1]; Oligo concentration 10 μM) was 79%. The “% mRNA INHIBITION” value (Human STAT3 mRNA [1]; U266 cells, 2.5 μM oligonucleotide, electroporation, 24 hours) was 27.7%, the “% mRNA EXPRESSION” value (Human STAT3 mRNA [1]; U266 cells, 2.5 μM oligonucleotide, electroporation, 24 hours, percent of control) was 72.3% and the “annexin V staining (in words)” value [2] was “increased levels of annexin V staining”. For the same substance, the “Percent change in STAT3 mRNA expression in A549 cells by duplex antisense compounds” value (“Percent change in STAT3 mRNA expression” for short) (Human STAT3 mRNA [3]; 12.5 nM oligonucleotide) was “+8%”, the “Percent change in STAT3 mRNA expression” value (Human STAT3 mRNA [3]; 25 nM oligonucleotide) was “+17%” and the “Percent change in STAT3 mRNA expression” value (Human STAT3 mRNA [3]; 50 nM oligonucleotide) was “+6%”. The “Percent change in STAT3 mRNA expression” value (Human STAT3 mRNA [3]; 100 nM oligonucleotide) was 0%, the “Percent change in STAT3 mRNA expression” value (Human STAT3 mRNA [3]; 200 nM oligonucleotide) was −22% and the “Percent change in STAT3 mRNA expression” value (Human STAT3 mRNA [3]; 400 nM oligonucleotide) was −34%.
